Data from patent US6486196B2, “Anticancer compounds: process for their preparation and pharmaceutical compositions containing them” (Dr. Reddy's Research Foundation, priority 2000, dated 2002).

Assays:
MCF-7/ADR = assay: Sulforhodamine B growth inhibition, breast MCF-7/ADR; type: cell-based, human; conditions: 48 h, SRB, read-out: GROWTH INHIBITION (GI 50)
Method: (§1) Each test compound was screened against a battery of cell lines representing eight different types of cancers. In a typical procedure, 1×10^4 cells were seeded into each well of 96 well plate in 100 μL volume of RPMI 1640 medium containing antibiotics and 10% FCS.
(§2) The plates were incubated at 37° C. in presence of CO2. After 24 h, test compounds were evaluated at five 10 fold dilutions ranging from 100 to 0.01 μM. To each test well 100 μL of test compound solution was added and medium with vehicle was added to control wells and the plates were further incubated. After 48 h of incubation, plates were terminated by Sulforhodamine B method.
(§3) The optical density which is proportional to protein mass, is then read by automated spectrophotometric plate reader at a wavelength of 515 nm.

MCF7 = assay: Sulforhodamine B growth inhibition, breast MCF7; type: cell-based, human; conditions: 48 h, SRB, read-out: GROWTH INHIBITION (GI 50)
Method: as §1, §2, §3

U251 = assay: Sulforhodamine B growth inhibition, CNS U251; type: cell-based, human; conditions: 48 h, SRB, read-out: GROWTH INHIBITION (GI 50)
Method: as §1, §2, §3

SW-620 = assay: Sulforhodamine B growth inhibition, colon SW-620; type: cell-based, human; conditions: 48 h, SRB, read-out: GROWTH INHIBITION (GI 50)
Method: as §1, §2, §3

HT29 = assay: Sulforhodamine B growth inhibition, colon HT29; type: cell-based, human; conditions: 48 h, SRB, read-out: GROWTH INHIBITION (GI 50)
Method: as §1, §2, §3

H522 = assay: Sulforhodamine B growth inhibition, lung H522; type: cell-based, human; conditions: 48 h, SRB, read-out: GROWTH INHIBITION (GI 50)
Method: as §1, §2, §3

UACC62 = assay: Sulforhodamine B growth inhibition, melanoma UACC62; type: cell-based, human; conditions: 48 h, SRB, read-out: GROWTH INHIBITION (GI 50)
Method: as §1, §2, §3

SKOV-3 = assay: Sulforhodamine B growth inhibition, ovarian SKOV-3; type: cell-based, human; conditions: 48 h, SRB, read-out: GROWTH INHIBITION (GI 50)
Method: as §1, §2, §3

PA1 = assay: Sulforhodamine B growth inhibition, ovarian PA1; type: cell-based, human; conditions: 48 h, SRB, read-out: GROWTH INHIBITION (GI 50)
Method: as §1, §2, §3

DU145 = assay: Sulforhodamine B growth inhibition, prostate DU145; type: cell-based, human; conditions: 48 h, SRB, read-out: GROWTH INHIBITION (GI 50)
Method: as §1, §2, §3

PC-3 = assay: Sulforhodamine B growth inhibition, prostate PC-3; type: cell-based, human; conditions: 48 h, SRB, read-out: GROWTH INHIBITION (GI 50)
Method: as §1, §2, §3

A498 = assay: Sulforhodamine B growth inhibition, renal A498; type: cell-based, human; conditions: 48 h, SRB, read-out: GROWTH INHIBITION (GI 50)
Method: as §1, §2, §3

HIV-1/MN = assay: Anti HIV activity in PM-1 cells (P24 ELISA, MTT corrected); type: cell-based; conditions: 1 μM; PM-1 cells infected with HIV-1/MN, 96 h, P24 antigen corrected by MTT
Method: Human CD^4+ T cell line PM-1 used in the assay was cultured in RPMI-1640 medium containing 10% Fetal bovine serum, 2 g/L sodium bicarbonate, 100,000 units/L Pencillin-G and 100 mg/L streptomycin. Healthy PM-1 cells were plated on the first day in a 96 well plate at 2×10^6 cells per well. After 24 h HIV-1/MN was added to the culture and incubated for 2 h for infection. Cells were washed twice with PBS to remove the virus in the culture. Different concentrations of DRF compounds ranging from 10−^4 to 10^−8 M were added to the culture and incubated for 96 h. The viability of cells was then assessed by standard MTT assay and the viral antigen P24 levels were estimated by ELISA method. Based on the MTT assay values the P 24 antigen values were corrected.
All the samples were tested in triplicates and the average was used for calculations. AZT was used as standard compound for comparision.

Human lymphocytes = assay: Lymphocyte proliferation (tritiated thymidine incorporation); type: cell-based; conditions: 1 μM; human lymphocytes with Phytohemagglutitin A
Method: Human lymphocytes were isolated from whole blood by using Ficoll Hypaque Plus (Amersham). On day one, 1 million lymphocytes were seeded into each well of 96 well plate in 100 μL volume of RPMI 1640 medium containing 10% FCS and Phytohemagglutitin A at 1 μg/well concentration. Plates were incubated at 37° C. in CO2 incubator for 24 h. Test compounds at various concentrations were added to test wells and only medium with vehicle was added to control wells. After 48 h of incubation […] of tritiated thymidine was added to each well. After 24 h of thymidine addition the cells were harvested and the incorporated radioactivity was determined.
Stimulation Index (SI) was calculated using the formula, […]

C57BL/KsJ-db/db mice = assay: Blood sugar and triglycerides lowering in db/db mice; type: in vivo; conditions: 100 mg/kg oral gavage daily for 6 days, plasma
Source text: Mutution in colonies of laboratory animals and different sensitivities to dietary regimens have made the development of animal models with non-insulin dependent diabetes and hyperlipidemia associated with obesity and insulin resistance possible. Genetic models such as db/db mice have been developed by the various laboratories for understanding the pathophysiology of disease and testing the efficacy of new antidiabetic compounds (Diabetes, (1983) 32: 830-838; Annu. Rep. Sankyo Res. Lab. (1994) 46:1-57). The homozygous animals, C57 BL/KsJ-db/db mice developed by Jackson Laboratory, US, are obese, hyperglycemic, hyperinsulinemic and insulin resistant (J. Clin, Invest., (1990) 85: 962-967), whereas heterozygous are lean and normoglycemic. […]
The random blood sugar and triglyceride levels were measured by collecting blood (100 μl) through orbital sinus, using heparinised capillary in tubes containing EDTA which was centrifuged to obtain plasma. The plasma glucose and triglyceride levels were measured spectrometrically, by glucose oxidase and glycerol-3-PO4 oxidase/peroxidase enzyme (Dr. Reddy's Lab. Diagnostic Division Kits, Hyderabad, India) methods respectively.
The blood sugar and triglycerides lowering activities of the test compound was calculated according to the formula: [formula]
Body weight of the animals were measured at the beginning and at the end of the study period.

Swiss albino mice = assay: Plasma triglyceride and body weight reduction in Swiss albino mice; type: in vivo
Method: Male Swiss albino mice (SAM) were obtained from NIN and housed in DRF animal house. All these animals were maintained under 12 hour light and dark cycle at 25±1° C. Animals were given standard laboratory chow (NIN, Hyderabad, India) and water, ad libitum. SAM of 20-25 g body weight range (Oliver, P., Plancke, M. O., Marzin, D., Clavey, V., Sauzieres, J and Fruchart, J. C. Effects of fenofibrate, gemfibrozil and nicotinic acid on plasma lipoprotein levels in normal and hyperlipidemic mice. Atherosclerosis. 1988. 70: 107-114)
The test compounds were administered orally to Swiss albino mice at 30 to 500 mg/kg/day dose for 6 days. Control mice were treated with vehicle (Chremophore/DMSO/H2O; dose 10 ml/kg).
The blood samples were collected in fed state 1 hour after drug administration on 0 and 6 day of treatment. The blood was collected from the retro-orbital sinus through heparinised capillary in EDTA containing tubes. After centrifugation, plasma sample was separated for triglyceride (Wieland, 0. Methods of Enzymatic analysis, Bergerneyer, H. O., Ed., 1963. 211-214; Trinder, P. Ann. Clin. Biochem. 1969. 6: 24-27). Measurement of plasma triglycerides was done using commercial kits (Dr. Reddy's Diagnostic Division, Hyderabad, India).
The formula used to measure percent reduction in blood sugar/triglycerides is given above.

## C=C1CC[C@@H]2[C@](C)(COC(C)=O)[C@H](OC(C)=O)CC[C@@]2(C)[C@@H]1C/C=C1/C(=O)OC[C@H]1OC(=O)C(OC(C)=O)C(NC(C)=O)c1ccccc1 (stereo partly drawn) [Example 16, 3,19-Diacetyl-14-(2′-acetyl 3′-acetamido 3′-phenyl)propionyl andrographolide]
MCF-7/ADR
  GI50: 5.5 µM
MCF7
  GI50: 5 µM
U251
  GI50: 4 µM
SW-620
  GI50: 6 µM
HT29
  GI50: 6.5 µM
H522
  GI50: 6 µM
UACC62
  GI50: 3 µM
SKOV-3
  GI50: 4 µM
PA1
  GI50: 2 µM
DU145
  GI50: 6.5 µM
PC-3
  GI50: 6.5 µM
A498
  GI50: 9 µM
HIV-1/MN
  Percentage Inhibition: 61.06%
Human lymphocytes
  Stimulation Index (SI): 90
C57BL/KsJ-db/db mice
  Percentage reduction Glucose: 64%
  Percentage reduction TG: 54%
Swiss albino mice; 100 mg/kg orally for 6 days
  Percentage reduction Body weight: 9%
  Percentage reduction TG: 42%
Swiss albino mice; 250 mg/kg orally for 6 days
  Percentage reduction Body weight: 15%
Swiss albino mice; 500 mg/kg orally for 6 days
  Percentage reduction Body weight: 23%
  Percentage reduction TG: 62%
